According to ChEMBL document CHEMBL4196067, “Indole in the target-based design of anticancer agents: A versatile scaffold with diverse mechanisms” (Eur J Med Chem, 2018):
Values after ≈ are worked out from the molar mass of the structure shown. Values belong to the compound of their own block, whether it stands above or below them.

Tests used:
Jurkat = test: Antiproliferative activity against human Jurkat cells by alamar blue assay; type: functional
MOLT-4 = test: Antiproliferative activity against human MOLT4 cells by alamar blue assay; type: functional
HuT78 = test: Antiproliferative activity against human HUT78 cells by alamar blue assay; type: functional
CCRF-HSB-2 = test: Antiproliferative activity against human HSB2 cells by alamar blue assay; type: functional
[1] = molecular target: T1, Sigma intracellular receptor 2 (Rattus norvegicus, UniProt Q5U3Y7); test: Displacement of [3H]-di-o-tolylguanidine from sigma-2 receptor in rat liver membranes after 180 mins by scintillation counting method; type: cell membranes, Membrane
T1 sequence (Q5U3Y7 whole entry): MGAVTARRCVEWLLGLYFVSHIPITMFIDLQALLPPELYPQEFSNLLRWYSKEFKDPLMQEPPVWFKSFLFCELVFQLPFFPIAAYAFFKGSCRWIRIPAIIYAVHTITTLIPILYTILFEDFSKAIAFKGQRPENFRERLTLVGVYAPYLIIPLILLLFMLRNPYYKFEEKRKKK

P388 = test: Antiproliferative activity against mouse P388 cells; type: functional, cell-based
[2] = molecular target: Serine/threonine-protein kinase pim-1 (Homo sapiens, UniProt P11309); test: Inhibition of PIM1 (unknown origin)
K562 = test: Antiproliferative activity against human K562 cells; type: functional, cell-based
HepG2 = test: Antiproliferative activity against human HepG2 cells; type: functional, cell-based
MCF7 [3] = test: Antiproliferative activity against human MCF7 cells; type: functional, cell-based
HCT-116 = test: Antiproliferative activity against human HCT116 cells; type: functional, cell-based
LoVo = test: Antiproliferative activity against human LoVo cells; type: functional, cell-based
Histone deacetylase 1 = Histone deacetylase 1 (Homo sapiens, UniProt Q13547); test: Inhibition of HDAC1 (unknown origin)
MCF7 [4] = test: Antiproliferative activity against human MCF7 cells after 72 hrs by SRB assay; type: functional, cell-based; conditions: MCF7, 72 h
[5] = molecular target: Sigma non-opioid intracellular receptor 1 (Cavia porcellus, UniProt Q60492); test: Displacement of [3H]-(+)-pentazocine from sigma-1 receptor in guinea pig brain membranes after 180 mins by scintillation counting method; type: cell membranes, Membrane
HT-1080 = test: Antiproliferative activity against human HT1080 cells; type: functional, cell-based
MDA-MB-435 = test: Antiproliferative activity against human MDA435 cells; type: functional, cell-based

Chain of Serine/threonine-protein kinase pim-1 (P11309 whole entry): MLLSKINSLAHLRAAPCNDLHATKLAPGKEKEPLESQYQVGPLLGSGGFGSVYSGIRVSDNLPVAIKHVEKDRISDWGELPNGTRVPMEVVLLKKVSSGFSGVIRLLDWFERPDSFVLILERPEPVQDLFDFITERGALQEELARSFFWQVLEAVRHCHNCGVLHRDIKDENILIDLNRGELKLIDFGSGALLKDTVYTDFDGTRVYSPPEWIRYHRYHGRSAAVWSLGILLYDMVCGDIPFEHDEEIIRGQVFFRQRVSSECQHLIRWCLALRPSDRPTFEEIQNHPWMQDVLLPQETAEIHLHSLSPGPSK
Chain of Histone deacetylase 1 (Q13547 whole entry): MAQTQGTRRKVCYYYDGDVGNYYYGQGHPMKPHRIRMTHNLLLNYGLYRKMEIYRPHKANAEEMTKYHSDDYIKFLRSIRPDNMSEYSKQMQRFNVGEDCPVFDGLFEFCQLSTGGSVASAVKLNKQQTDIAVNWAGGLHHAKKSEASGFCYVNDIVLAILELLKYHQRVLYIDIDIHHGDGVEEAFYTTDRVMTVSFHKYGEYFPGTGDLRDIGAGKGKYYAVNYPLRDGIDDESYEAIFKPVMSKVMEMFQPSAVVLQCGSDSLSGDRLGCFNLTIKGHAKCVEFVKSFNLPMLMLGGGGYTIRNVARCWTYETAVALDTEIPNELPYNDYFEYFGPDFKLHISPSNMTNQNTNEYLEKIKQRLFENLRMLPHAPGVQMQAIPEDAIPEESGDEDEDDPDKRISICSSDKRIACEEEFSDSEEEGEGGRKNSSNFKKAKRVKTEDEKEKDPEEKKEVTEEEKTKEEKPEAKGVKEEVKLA
Chain of Sigma non-opioid intracellular receptor 1 (Q60492 whole entry): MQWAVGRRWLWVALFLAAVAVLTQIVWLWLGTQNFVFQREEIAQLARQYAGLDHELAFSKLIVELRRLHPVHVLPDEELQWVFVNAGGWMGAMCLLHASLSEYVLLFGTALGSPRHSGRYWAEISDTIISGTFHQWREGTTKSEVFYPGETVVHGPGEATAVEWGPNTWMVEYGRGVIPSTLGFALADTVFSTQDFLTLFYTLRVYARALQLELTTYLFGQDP

Compound: COc1ccc(Cn2ccc3ccc(C(=O)NO)cc32)cc1
GI50 (Jurkat): 2.4 to 4 µM
GI50 (MOLT-4): 2.4 to 4 µM
GI50 (HuT78): 2.4 to 4 µM
GI50 (CCRF-HSB-2): 2.4 to 4 µM

Compound: N[C@@H]1CSCON2CCc3c([nH]c4cc(Br)ccc34)[C@H]12
IC50 (P388): 0.01 µg/mL (≈ 0.0282 µM)

Compound: CCN(CC)CCCOc1cc(-c2ccc3[nH]cc(-c4ccnc(N)n4)c3c2)nc(N)n1
IC50 [2]: 0.067 µM

Compound: COc1ccc2[nH]cc(Cn3cc(COc4ccc(/C=C/C(=O)NO)cc4OC)nn3)c2c1
IC50 (K562): 3.57 to 6.21 µM
IC50 (HepG2): 3.57 to 6.21 µM
IC50 (MCF7 [3]): 3.57 to 6.21 µM
IC50 (HCT-116): 3.57 to 6.21 µM
IC50 (LoVo): 3.57 to 6.21 µM
IC50 (Histone deacetylase 1): 0.078 µM

Compound: CN(C)CCCOc1cc(-c2ccc3[nH]cc(-c4ccnc(N)n4)c3c2)nc(N)n1
IC50 [2]: 0.058 µM

Compound: O=C(CCCCCCNC(=O)c1cc2ccccc2[nH]1)NO
IC50 (HT-1080): 0.14 µM
IC50 (MDA-MB-435): 0.15 µM

Second part, the compound after the results:

Ki [1]: 0.0099 µM
Compound: Fc1ccccc1N1CCN(CCCn2ccc3ccccc32)CC1

Ki [1]: 0.0558 µM
Compound: Cc1cn(CN2CCN(CCc3ccccc3)CC2)c2ccccc12

IC50 (MCF7 [4]): 2.92 µM
Ki [1]: ≤ 0.13 µM
Ki [5]: ≤ 0.13 µM
Compound: Clc1ccc(CN2CCN(Cc3c[nH]c4ccccc34)CC2)cc1Cl
